Results published in patent publication US20230167088A1, “1-PYRAZINYLPYRAZOLYL-3-OXYALKYL ACIDS AND THEIR DERIVATIVES, AND THEIR USE FOR CONTROL OF UNDESIRED PLANT GROWTH” (BAYER AKTIENGESELLSCHAFT, priority 2020, published 2023).

Legend:
[1] = system: POLCO; experiment: Herbicidal pre-emergence action 2a (greenhouse pots, visual scoring); format: in vivo, Polygonum convolvulus; conditions: dosage 320 g/ha, visual scoring after about 3 weeks vs untreated controls
Summary of the method: (§1)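 Seeds were sown in pots, covered with soil, and the compound (WP or EC formulation) was sprayed onto the soil surface as an aqueous suspension or emulsion with 0.5% additive at 600 l/ha water, at 320 g/ha and/or 80 g/ha. Greenhouse growth followed for about 3 weeks, then visual scoring against untreated controls.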

[2] = system: ALOMY; experiment: Herbicidal post-emergence action 1a (greenhouse pots, visual rating); format: in vivo, Alopecurus myosuroides; conditions: rated visually about 3 weeks after treatment, 100% = plants have died, 0% = like control plants
Summary of the method: (§2)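 Visual scoring versus untreated plants (100% = plants dead, 0% = as control) followed roughly 3 weeks in the greenhouse after treatment. Plants grown in sandy loam pots had been sprayed on green parts at the one-leaf stage, 2–3 weeks post-sowing, with aqueous WP/EC preparations containing 0.5% additive, 600 l/ha, at 320 and/or 80 g/ha.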

[3] = system: LOLRI; experiment: Herbicidal pre-emergence action 2a (greenhouse pots, visual scoring); format: in vivo, Lolium rigidum; conditions: dosage 320 g/ha, visual scoring after about 3 weeks vs untreated controls
Summary of the method: as §1

[4] = system: SETVI; experiment: Herbicidal post-emergence action 1a (greenhouse pots, visual rating); format: in vivo, Setaria viridis; conditions: rated visually about 3 weeks after treatment, 100% = plants have died, 0% = like control plants
Summary of the method: as §2

[5] = system: STEME; experiment: Herbicidal pre-emergence action 2b (doubly sown, 1280 g/ha); format: in vivo, Stellaria media; conditions: doubly sown pots, dosage 1280 g/ha, visual scoring after about 3 weeks
Summary of the method: (§3)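 Visual % scores against untreated plants (0% = like control, 100% = dead) were taken roughly 3 weeks after treatment in the greenhouse. Compounds, as WP or EC with 0.5% additive, were applied in 600 l/ha water onto covering soil over seeds of paired mono-/dicot weeds in sandy loam.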

[6] = system: DIGSA; experiment: Herbicidal pre-emergence action 2a (greenhouse pots, visual scoring); format: in vivo, Digitaria sanguinalis; conditions: dosage 320 g/ha, visual scoring after about 3 weeks
Summary of the method: as §1

[7] = system: MATIN; experiment: Herbicidal pre-emergence action 2b (doubly sown, 1280 g/ha); format: in vivo, Matricaria inodora; conditions: doubly sown pots, dosage 1280 g/ha, visual scoring after about 3 weeks
Summary of the method: as §3

[8] = system: AMARE; experiment: Herbicidal post-emergence action 1a (greenhouse pots, visual rating); format: in vivo, Amaranthus retroflexus; conditions: visual rating about 3 weeks after treatment
Summary of the method: as §2

[9] = system: VERPE; experiment: as above; format: in vivo, Veronica persica; conditions: visual rating about 3 weeks after treatment
Summary of the method: as §2

[10] = system: harmful plants; experiment: Herbicidal post-emergence action 1a, summary across species; format: in vivo; conditions: Tables A1 to A15 (320 g/ha and/or 80 g/ha)
Method: a) Seeds of monocotyledonous and dicotyledonous weeds and crop plants are placed in sandy loam in plastic or organic plant pots, covered with soil and cultivated in a greenhouse under controlled growth conditions. 2 to 3 weeks after sowing, the test plants are treated at the one-leaf stage. The compounds of the invention, formulated in the form of wettable powders (WP) or as emulsion concentrates (EC), are then sprayed onto the green parts of the plants as aqueous suspension or emulsion with addition of 0.5% additive at a water application rate of 600 1/ha (converted). After the test plants have been kept in the greenhouse under optimum growth conditions for about 3 weeks, the activity of the preparations is rated visually in comparison to untreated controls. For example, 100% activity=the plants have died, 0% activity=like control plants.
Tables A1 to A15 below show the effects of selected compounds of the general formula (I) according to Tables 1 and 2 on various harmful plants and an application rate corresponding to 320 g/ha and/or 80 g/ha, which were obtained by the experimental procedure mentioned above.
For example, compound nos. I-05, I-07, I-08, I-10, I-12, I-16, I-17, I-22, I-36, I-37, I-39 and I-40 in the post-emergence method have very good action (80% to 100% herbicidal activity) against harmful plants such as Alopecurus myosuroides, Amaranthus retroflexus, Avena fatua, Lolium rigidum, Polygonum convolvulus, Setaria viridis, Veronica persica and Viola tricolor at an application rate of 0.32 kg of active substance per hectare.

[11] = system: DIGSA; experiment: Herbicidal post-emergence action 1a (greenhouse pots, visual rating); format: in vivo, Digitaria sanguinalis; conditions: rated visually about 3 weeks after treatment, 100% = plants have died, 0% = like control plants
Summary of the method: as §2

[12] = system: POAAN; experiment: Herbicidal pre-emergence action 2b (doubly sown, 1280 g/ha); format: in vivo, Poa annua; conditions: doubly sown pots, dosage 1280 g/ha, visual scoring after about 3 weeks
Summary of the method: as §3

[13] = system: ECHCG; experiment: Herbicidal post-emergence action 1a (greenhouse pots, visual rating); format: in vivo, Echinochloa crus-galli; conditions: Dosage 320 g/ha; rated visually about 3 weeks after treatment; 100% = plants have died, 0% = like control plants
Summary of the method: as §2

[14] = system: VERPE; experiment: Herbicidal pre-emergence action 2a (greenhouse pots, visual scoring); format: in vivo, Veronica persica; conditions: dosage 320 g/ha, visual scoring after about 3 weeks vs untreated controls
Summary of the method: as §1

[15] = system: AMARE; experiment: Herbicidal pre-emergence action 2b (doubly sown, 1280 g/ha); format: in vivo, Amaranthus retroflexus; conditions: doubly sown pots, dosage 1280 g/ha, visual scoring after about 3 weeks
Summary of the method: as §3

[16] = system: AMARE; experiment: Herbicidal pre-emergence action 2a (greenhouse pots, visual scoring); format: in vivo, Amaranthus retroflexus; conditions: dosage 320 g/ha, visual scoring after about 3 weeks vs untreated controls
Summary of the method: as §1

[17] = system: ECHCG; experiment: as above; format: in vivo, Echinochloa crus-galli; conditions: dosage 320 g/ha, visual scoring after about 3 weeks
Summary of the method: as §1

| Compound | Pre-emergence action against POLCO in % [1] [%] | Post-emergence action against ALOMY in % ([2]; Dosage 80 g/ha) [%] | Post-emergence action against ALOMY in % ([2]; Dosage 320 g/ha) [%] | Pre-emergence action against LOLRI in % [3] [%] | Post-emergence action against SETVI in % ([4]; Dosage 320 g/ha) [%] | Pre-emergence action at 1280 g/ha against STEME in % [5] [%] | Pre-emergence action against DIGSA in % [6] [%] | Pre-emergence action at 1280 g/ha against MATIN in % [7] [%] | Post-emergence action against AMARE in % ([8]; dosage 80 g/ha) [%] | Post-emergence action against AMARE in % ([8]; dosage 320 g/ha) [%] | Post-emergence action against VERPE in % ([9]; dosage 80 g/ha) [%] | Post-emergence action against VERPE in % ([9]; dosage 320 g/ha) [%] | herbicidal efficacy against harmful plants in the case of post-emergence treatment (in words) [10] | Post-emergence action against DIGSA in % ([11]; Dosage 320 g/ha) [%] | Pre-emergence action at 1280 g/ha against POAAN in % [12] [%] | Post-emergence action against ECHCG in % [13] [%] | Pre-emergence action against VERPE in % [14] [%] | Pre-emergence action at 1280 g/ha against AMARE in % [15] [%] | Pre-emergence action against AMARE in % [16] [%] | Post-emergence action against SETVI in % ([4]; Dosage 80 g/ha) [%] | also measured |
| --- | --- | --- | --- | --- | --- | --- | --- | --- | --- | --- | --- | --- | --- | --- | --- | --- | --- | --- | --- | --- | --- |
| COC(=O)C(C)Oc1nn(-c2cnccn2)c(-c2ccc(F)nc2)c1Br (racemic) [Example I-12] | 90 | 90 | 90 | 100 | 80 | 100 | 100 | 90 | 80 | 80 | 80 | 90 | good herbicidal efficacy | 80 | 100 | 80 | 80 | 100 | 100 |  |  |
| COC(=O)C(C)Oc1nn(-c2cnccn2)c(-c2ccc(F)c(F)c2)c1Br (racemic) [Example I-16] | 90 | 90 | 100 | 100 | 90 | 100 | 100 | 100 |  | 90 |  | 80 | good herbicidal efficacy | 90 | 100 | 90 | 100 | 100 | 100 | 80 |  |
| COC(=O)COc1nn(-c2cnccn2)c(-c2ccc(F)c(F)c2)c1Br [Example I-15] |  | 80 | 80 | 100 | 90 |  | 100 |  | 80 | 80 | 90 | 90 | good herbicidal efficacy | 90 |  | 90 | 100 |  | 100 | 90 | Pre-emergence action against ECHCG in % [17]: 100% |
| COC(=O)C(C)Oc1nn(-c2cnccn2)c(-c2ccc(F)c(F)c2)c1C#N (racemic) [Example I-22] | 80 | 90 | 100 | 100 | 80 | 100 | 100 | 90 | 90 | 90 | 80 | 90 | good herbicidal efficacy | 80 | 100 |  |  | 100 | 90 | 80 |  |
| COC(=O)C(C)Oc1nn(-c2cnccn2)c(-c2ccnc(F)c2)c1Cl (racemic) [Example I-05] |  | 100 | 100 | 100 | 80 | 100 | 100 | 90 |  | 80 | 80 | 90 | good herbicidal efficacy | 90 | 100 |  | 100 | 100 | 100 |  | Pre-emergence action against ECHCG in % [17]: 90%; Post-emergence action against DIGSA in % ([11]; Dosage 80 g/ha): 80% |
| COC(=O)[C@@H](C)Oc1nn(-c2cnccn2)c(-c2cncc(F)c2)c1C#N [Example I-40] | 80 | 80 | 90 | 90 | 90 | 100 | 100 | 100 | 80 | 90 |  | 80 | good herbicidal efficacy | 80 | 100 |  |  | 100 | 90 |  |  |
